From US9840481B2, “Allosteric modulators of nicotinic acetylcholine receptors” (MERCK SHARP & DOHME CORP., priority 2016, dated 2017)
Read-outs that look alike come from different tables or passages of the source.

Biological target: T1, human α7 nAChR stably expressed in a HEK cell line (with human RIC-3) (Homo sapiens, UniProt P36544)
T1 construct: PrecisION hnAChR α7/RIC-3
Experiment: Automated patch-clamp electrophysiology functional assay (Assay A), IonFlux HT, whole-cell population patch
Type: cell-based
Protocol: The α7 nAChR positive allosteric modulator (PAM) activity of the present compounds may be tested using assays known in the art. The α7 nAChR PAMs described herein have activities in an automated patch-clamp electrophysiology functional assay as described in the examples. The assay was performed using the IonFlux HT in a whole-cell, population patch configuration. See Golden et al. Assay Drug Dev. Technol. (2011) 9:608-619. The compounds were assessed for their ability to modulate the function of the human α7 nAChR stably expressed in a HEK cell line both in the presence, and in the absence of the natural α7 agonist acetylcholine. By performing a series of such measurements at different concentrations, the effective concentration of the α7 nAChR PAMs (EC50) was determined. See Spencer et al. Assay Drug Dev. Technol. (2012) 10:313-324.
Direct activation of α7 (agonism), and potentiation of 5 acetylcholine-evoked α7 currents was determined as follows:
Automated Patch-Clamp Electrophysiology Functional Assay (Assay A)
Automated patch-clamp electrophysiology was performed using the IonFlux HT (Fluxion Biosciences Inc., San Francisco, Calif.) in the whole-cell, population patch configuration. Test compounds were assessed for their ability to modulate the function of the α7 nicotinic acetylcholine receptor both in the presence, and in the absence of the natural α7 agonist acetylcholine. A HEK cell line stably expressing both human RIC-3 and human α7 (PrecisION hnAChR α7/RIC-3, Eurofins Pharma, St. Charles, Mo.) was cultured in 175 cm^2 triple-layer tissue culture flasks to no more than 90% confluency in DMEM/F-12 growth media supplemented with 10% heat-inactivated fetal bovine serum, 1% non-essential amino acids, 0.625 μg/mL Puromycin, and 400 μg/mL Geneticin. Immediately prior to assay, cells were detached by first aspirating growth media, rinsing with Dulbecco's phosphate buffered saline, and then adding 10 mL of Accutase (Innovative Cell Technologies, San Diego, Calif.) to the flask and then incubating at 37° C. for 5 minutes. Detached cells were then recovered by the addition of 40 mL of CHO-serum-free media supplemented with 25 mM HEPES, and rocked gently in a 50 mL conical tube for 20 minutes prior to patch-clamp assay. After recovery, cells were pelleted by centrifugation at 1,000 RPM for 1 minute in a compact bench top centrifuge; recovery media was aspirated and cells were resuspended in external recording solution (150 mM NaCl, 5 mM KCl, 2 mM CaCl2, 1 mM MgCl2, 10 mM HEPES, 12 mM dextrose) to a density of 5.0×10^6 cells/mL. The cell suspension was added to the cell inlet wells on an IonFlux HT population patch plate which had previously been rinsed and primed with deionized H2O. Test compounds were serially diluted in DMSO and then resuspended to the final test concentration in external recording solution, with, or without […] acetylcholine added to the external recording solution; test compounds were then transferred to the IonFlux HT population patch plate. Internal recording solution (110 mM TrisPO4, 28 mM TrisBase, 0.1 mM CaCl2, 2 mM MgCl2, 11 mM EGTA, 4 mM MgATP) was added to the internal recording solution inlet wells on the IonFlux HT patch plate previously loaded with cells and test compounds, and the plate loaded into the IonFlux HT instrument. A protocol was executed on the IonFlux HT to trap the cells, break into the cells, and establish the whole-cell recording configuration; cells were voltage-clamped at a holding potential of −60 mV for the duration of the experiment, all experiments were conducted at room temperature, and the IonFlux HT injection pressure was 8 psi for solution applications. Upon establishing the whole-cell configuration, external recording solution was perfused into the recording chambers for 120 seconds and then 40 μM acetylcholine was applied for 1 second and immediately washed off with external recording solution for 60 seconds. […]

[1] = automated patch-clamp electrophysiology functional assay (Assay A), potency class by EC50, read-out: α7 nAChR Potency
[2] = electrophysiology EC50, HEK cells expressing human α7/RIC-3, 40 μM acetylcholine, holding potential −60 mV, room temperature, read-out: α7 nAChR EC50

T1 sequence (P36544 23-502): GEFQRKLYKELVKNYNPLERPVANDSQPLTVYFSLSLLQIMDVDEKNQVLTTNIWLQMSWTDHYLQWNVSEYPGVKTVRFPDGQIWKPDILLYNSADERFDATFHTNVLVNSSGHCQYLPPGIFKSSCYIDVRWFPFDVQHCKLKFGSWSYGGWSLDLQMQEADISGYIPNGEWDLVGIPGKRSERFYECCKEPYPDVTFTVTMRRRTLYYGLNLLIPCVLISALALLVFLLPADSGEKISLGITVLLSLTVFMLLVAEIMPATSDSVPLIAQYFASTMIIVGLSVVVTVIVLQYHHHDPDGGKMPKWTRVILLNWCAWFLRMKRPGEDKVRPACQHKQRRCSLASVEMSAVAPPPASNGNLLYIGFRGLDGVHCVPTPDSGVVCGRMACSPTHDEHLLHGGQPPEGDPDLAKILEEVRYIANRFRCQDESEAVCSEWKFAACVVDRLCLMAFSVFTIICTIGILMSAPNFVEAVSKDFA

SMILES | EC50 [1] | EC50 [2]
CC(C)c1noc([C@@H]2C[C@H]2c2ccc(S(N)(=O)=O)cc2)n1 [Example D11] | 100 to 500 nM | 430 nM
NS(=O)(=O)c1ccc([C@@H]2C[C@H]2c2ncc(C3CC3)o2)cc1 [Example K5] | 100 to 500 nM | 350 nM
NS(=O)(=O)c1ccc([C@@H]2C[C@H]2c2nc(-c3cnccc3C(F)(F)F)no2)cc1 [Example D25] | 500 to 5000 nM | 
CC1(C)[C@@H](c2ccc(S(N)(=O)=O)cc2)[C@@H]1c1nnc(C2CCCCC2)s1 [Example G13] | 500 to 5000 nM | 2200 nM
CC(C)c1nnc([C@H]2[C@H](c3ccc(S(N)(=O)=O)cc3)C2(C)C)o1 [Example G9] | 500 to 5000 nM | 
Cc1ccc(F)cc1-c1noc([C@H]2[C@H](c3ccc(S(N)(=O)=O)cc3)C2(C)C)n1 [Example 1, 4-((1S,3S)-3-(3-(5-Fluoro-2-methylphenyl)-1,2,4-oxadiazol-5-yl)-2,2-dimethylcyclopropyl)-benzenesulfonamide] | 500 to 5000 nM | 4100 nM
NS(=O)(=O)c1ccc([C@@H]2C[C@H]2c2ncc(-c3cccc(F)c3)s2)cc1 [Example K20] | 100 to 500 nM | 
CC1(C)[C@@H](c2ccc(S(N)(=O)=O)cc2)[C@@H]1c1nc(C2CCCCC2O)no1 (stereo partly drawn) [Example D32] | 500 to 5000 nM | 
CC1(C)[C@@H](c2ccc(S(N)(=O)=O)cc2)[C@@H]1c1ncc(C2CCCC2)s1 [Example K16] | 500 to 5000 nM | 
NS(=O)(=O)c1ccc(C2C(c3ncc(-c4ccccc4)o3)C2(F)F)cc1 (racemic) [Example M1] | 500 to 5000 nM | 
NS(=O)(=O)c1ccc([C@@H]2[C@@H](c3ncc(C4CCCC4)o3)C2(F)F)cc1 [Example J11] | 500 to 5000 nM | 730 nM
NS(=O)(=O)c1ccc([C@@H]2C[C@H]2c2nc(CC3CC3)no2)cc1 [Example D28] | 500 to 5000 nM | 
Cc1ncoc1-c1nc([C@H]2[C@H](c3ccc(S(N)(=O)=O)cc3)C2(C)C)no1 [Example I7] | 500 to 5000 nM | 710 nM
NS(=O)(=O)c1ccc([C@H]2[C@H](c3nc(-c4ccccc4)no3)C2(F)F)cc1 [Example C21] | ≤ 100 nM | 83 nM
CC(C)c1noc([C@@H]2[C@@H](c3ccc(S(N)(=O)=O)cc3)C2(C)C)n1 [Example B1] | 500 to 5000 nM | 1500 nM
NS(=O)(=O)c1ccc([C@@H]2C[C@H]2c2nc(C3CCCC3)no2)cc1 [Example D21] | 100 to 500 nM | 130 nM
CC1(C)[C@@H](c2ccc(S(N)(=O)=O)cc2)[C@@H]1c1noc(C2CC(O)C2)n1 (stereo partly drawn) [Example I30] | 500 to 5000 nM | 3800 nM
CC1(C)[C@@H](c2ccc(S(N)(=O)=O)cc2)[C@@H]1c1noc(-c2c[nH]c(C3CC3)n2)n1 [Example I8] | 500 to 5000 nM | 4400 nM
CC1(C)[C@@H](c2ccc(S(N)(=O)=O)cc2)[C@@H]1c1nnc(-c2ccccc2C(F)(F)F)o1 [Example G4] | 500 to 5000 nM | 
CC(C)Oc1ccc(Cl)cc1-c1noc([C@H]2[C@H](c3ccc(S(N)(=O)=O)cc3)C2(C)C)n1 [Example C3] | 5000 to 50000 nM | 6100 nM
CC1(C)[C@H](c2ccc(S(N)(=O)=O)cc2)[C@H]1c1nc(C2CCCC2)no1 [Example B9] | 500 to 5000 nM | 1000 nM
CCc1coc([C@@H]2C[C@H]2c2ccc(S(N)(=O)=O)cc2)n1 [Example K6] | 500 to 5000 nM | 
NS(=O)(=O)c1ccc([C@@H]2C[C@H]2c2ccn(Cc3cccc(F)c3)n2)cc1 [Example 23, 4-{(1R,2R)-2-[1-(3-Fluorobenzyl)-1H-pyrazol-3-yl]cyclopropyl}benzenesulfonamide] | 100 to 500 nM | 460 nM

SMILES | EC50 [1] | EC50 [2]
CC1(C)[C@H](c2ccc(S(N)(=O)=O)cc2)[C@H]1c1nc(C2CCOC2)no1 (stereo partly drawn) [Example B11] | 5000 to 50000 nM | 5800 nM
CC1(C)[C@@H](c2ccc(S(N)(=O)=O)cc2)[C@@H]1c1noc(-c2ccc(OC(F)(F)F)cc2)n1 [Example H13] | 500 to 5000 nM | 
CC1(C)[C@@H](c2ccc(S(N)(=O)=O)cc2)[C@@H]1c1nc(-c2ccc(F)cc2C(F)(F)F)no1 [Example C2] | 500 to 5000 nM | 
CC(C)c1noc([C@@H]2[C@@H](c3ccc(S(N)(=O)=O)cc3)C2(F)F)n1 [Example 7, 4-{(1S,3S)-2,2-Difluoro-3-[3-(propan-2-yl)-1,2,4-oxadiazol-5-yl]cyclopropyl}benzenesulfonamide] | 500 to 5000 nM | 910 nM
NS(=O)(=O)c1ccc([C@@H]2C[C@H]2c2nc(-c3ccccc3C(F)(F)F)no2)cc1 [Example C6] | 500 to 5000 nM | 
CC1(C)[C@@H](c2ccc(S(N)(=O)=O)cc2)[C@@H]1c1nc(-c2cnccc2C(F)(F)F)no1 [Example D2] | 500 to 5000 nM | 
CC1(C)[C@@H](c2ccc(S(N)(=O)=O)cc2)[C@@H]1c1nnc(-c2ccccc2)s1 [Example G7] | 500 to 5000 nM | 1800 nM
CC1(C)[C@@H](c2ccc(S(N)(=O)=O)cc2)[C@@H]1c1nc(C2CC(F)(F)C2)no1 [Example D18] | ≤ 100 nM | 95 nM
CC1(C)[C@H](c2ccc(S(N)(=O)=O)cc2)[C@H]1c1noc(N2CCCCC2)n1 [Example L20] | 500 to 5000 nM | 1300 nM
CC1(C)[C@@H](c2ccc(S(N)(=O)=O)cc2)[C@@H]1c1noc(-c2cc(F)cc(F)c2F)n1 [Example H10] | 100 to 500 nM | 240 nM
CC1(C)[C@H](c2ccc(S(N)(=O)=O)cc2)[C@H]1c1nc(C2CCC2)no1 [Example B3] | 5000 to 50000 nM | 8700 nM
Cn1ccc(-c2nc([C@H]3[C@H](c4ccc(S(N)(=O)=O)cc4)C3(C)C)no2)c1 [Example I10] | 500 to 5000 nM | 
CC(C)(C)c1coc([C@@H]2[C@@H](c3ccc(S(N)(=O)=O)cc3)C2(C)C)n1 [Example J4] | 500 to 5000 nM | 3200 nM
CC1(C)[C@@H](c2ccc(S(N)(=O)=O)cc2)[C@@H]1c1nnc(-c2c(F)cccc2F)o1 [Example G5] | 500 to 5000 nM | 1300 nM
NS(=O)(=O)c1ccc([C@@H]2C[C@H]2c2nc(-c3ccc(F)cc3F)no2)cc1 [Example C13] | 100 to 500 nM | 160 nM
NS(=O)(=O)c1ccc(C2CC2c2coc(-c3ccccc3)n2)cc1 (stereo not drawn) [Example 24, 4-[trans-2-(2-Phenyl-1,3-oxazol-4-yl)cyclopropyl]benzenesulfonamide] | 500 to 5000 nM | 2400 nM
CC1(C)[C@H](c2ccc(S(N)(=O)=O)cc2)[C@H]1c1nc(C2CCCC2)co1 [Example J8] | 500 to 5000 nM | 
NS(=O)(=O)c1ccc([C@@H]2C[C@H]2c2nc(C3(c4ccccc4)CC3)no2)cc1 [Example D23] | 500 to 5000 nM | 2100 nM
CC1(C)[C@@H](c2ccc(S(N)(=O)=O)cc2)[C@@H]1c1nc(C2CCCC2)no1 [Example D20] | ≤ 100 nM | 69 nM
CC1(C)C(c2ccc(S(N)(=O)=O)cc2)C1c1cc(-c2cccc(F)c2)on1 (racemic) [Example M6] | 500 to 5000 nM | 2900 nM
Cc1ccc(-c2noc([C@@H]3C[C@H]3c3ccc(S(N)(=O)=O)cc3)n2)cc1 [Example C19] | 500 to 5000 nM | 510 nM
CC1(C)[C@H](c2ccc(S(N)(=O)=O)cc2)[C@H]1c1nnc(-c2ccc(F)cc2F)s1 [Example 5, 4-{(1R,3R)-3-[5-(2,4-Difluorophenyl)-1,3,4-thiadiazol-2-yl]-2,2-dimethylcyclopropyl}benzenesulfonamide] | 100 to 500 nM | 180 nM
